The source made the active and inactive calls. No cut-off for these calls is given here.
Key:
[1] = molecular target: Free fatty acid receptor 1 (Homo sapiens, UniProt O14842); assay: Agonist activity at human FFA1 receptor expressed in CHO cells assessed as increase in intracellular calcium levels measured for 1 hr by Fluo 4-AM dye based FLIPR assay; assay type: functional, cell-based
[2] = Apparent volume of distribution during terminal phase in 12 hrs fasted Sprague-Dawley rat at 3 mg/kg, po administered as single dose measured up to 24 hrs by LC-PDA-MS/MS analysis; assay type: ADME, organism-based; details: in vivo
[3] = Cmax in 12 hrs fasted Sprague-Dawley rat at 3 mg/kg, po administered as single dose measured up to 24 hrs by LC-PDA-MS/MS analysis; assay type: ADME, organism-based; set-up: dose 3 mg/kg, route oral; details: in vivo
[4] = AUC (0 to 24 hrs) in 12 hrs fasted Sprague-Dawley rat at 3 mg/kg, po administered as single dose measured up to 24 hrs by LC-PDA-MS/MS analysis; assay type: ADME, organism-based; set-up: time < 24 hr, dose 3 mg/kg, route oral; details: in vivo
[5] = Half life in 12 hrs fasted Sprague-Dawley rat at 3 mg/kg, po administered as single dose measured up to 24 hrs by LC-PDA-MS/MS analysis; assay type: ADME, organism-based; details: in vivo
Mus musculus [6] = assay: Induction of hypoglycemia in fasting normal ICR mouse assessed as reduction in blood glucose level at 60 mg/kg, po measured up to 3 hrs post dose; assay type: organism-based; details: in vivo
Mus musculus [7] = assay: Antidiabetic activity in normal ICR mouse assessed as reduction in blood glucose level at 20 mg/kg, po administered 30 mins before oral glucose load by OGTT assay; assay type: functional, organism-based
Mus musculus [8] = assay: Antidiabetic activity in normal ICR mouse assessed as reduction in blood glucose AUC (0 to 120 mins) at 20 mg/kg, po administered 30 mins before oral glucose load by OGTT assay; assay type: functional, organism-based
Mus musculus [9] = assay: Induction of hypoglycemia in fasting normal ICR mouse assessed as reduction in blood glucose level at 15 mg/kg, po measured up to 3 hrs post dose; assay type: organism-based; details: in vivo

Sequence of Free fatty acid receptor 1 (O14842 whole entry): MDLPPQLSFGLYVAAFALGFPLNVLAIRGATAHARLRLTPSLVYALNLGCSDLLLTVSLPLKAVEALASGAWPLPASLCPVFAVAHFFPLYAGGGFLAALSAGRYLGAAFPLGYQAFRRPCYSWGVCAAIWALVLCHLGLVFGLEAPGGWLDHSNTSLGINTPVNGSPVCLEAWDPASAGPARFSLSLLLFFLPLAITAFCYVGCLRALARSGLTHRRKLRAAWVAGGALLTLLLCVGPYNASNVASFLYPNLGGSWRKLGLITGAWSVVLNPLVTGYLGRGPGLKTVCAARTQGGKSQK

For `[2H]C([2H])(Cc1ccc(OCc2cccc(-c3c(C)noc3C)c2)cc1F)C(=O)O`, the EC50 [1] was 37.4 nM, the Vz/F [2] was 0.049 L/kg and the Cmax [3] was 2910 ng/mL. For the same compound, the AUC [4] was 46.49243 µg·h/mL, the t1/2 [5] was 3.14 h and the Activity (Mus musculus [6]) was “Non-Toxic”.

`Cc1noc(C)c1-c1cccc(COc2ccc(CCC(=O)O)c(F)c2)c1` gave an EC50 [1] of 32.5 nM, a Vz/F [2] of 0.074 L/kg and a Cmax [3] of 1730 ng/mL. The AUC [4] was 14.06325 µg·h/mL, the t1/2 [5] was 1.75 h and the Activity (Mus musculus [7]) was “inactive”. For the same compound, the Activity (Mus musculus [7]; tested as the 2H-labelled form) was “Active”, the Activity (Mus musculus [8]) was “inactive” and the Activity (Mus musculus [8]; tested as the 2H-labelled form) was “Active”.

For `COc1ccc(Cl)cc1C(=O)NCCc1ccc(S(=O)(=O)NC(=O)NC2CCCCC2)cc1` [GLYBURIDE], the Activity (Mus musculus [9]) was “Toxic”.

`[2H]C([2H])(Cc1ccc(OCc2cccc(-c3c(C)noc3C)c2)cc1)C(=O)O` gave an EC50 [1] of 28.9 nM, a Vz/F [2] of 0.057 L/kg and a Cmax [3] of 2360 ng/mL. For the same compound, the AUC [4] was 31.69416 µg·h/mL and the t1/2 [5] was 2.58 h.

Reference: ChEMBL document CHEMBL4339214, “Design, synthesis and biological activity of deuterium-based FFA1 agonists with improved pharmacokinetic profiles” (Bioorg Med Chem Lett, 2019)
